Test system: cardiac myocytes of acutely explanted rabbit heart
Assay: Adenovirus gene transfer in Langendorff-perfused explanted rabbit heart; β-galactosidase staining of isolated myocytes
Description: Adenovirus vectors. Adβgal contained the E. coli lac Z gene driven by the human cytomegalovirus (CMV) immediate early promoter. Virus stocks were expanded as previously described in Graham F L, Prevec L: Manipulation of adenovirus vectors, in Murray E J (ed): Methods in molecular biology. Clifton, N.J., Humana, 1991, pp 109-128, aliquoted in small volumes, and stored in phosphate-buffered saline (PBS) with 10% sucrose at −80° C. Viral titers were determined by the average of two plaque assays performed using a traditional method as described in Methods in molecular biology, supra.
Statistical Analysis. Unless otherwise stated, all experiments were performed in triplicate and the data are presented as mean ±s.d. Statistical significance was determined at the 5% level using the unpaired Student's t-test.
Baseline conditions for the Langendorff-perfusion experiments included a coronary flow rate of 30 ml/min, and perfusion with Krebs solution containing 1.0 mmol/L Ca^2+ and 1.0×10^8 pfu/ml of Adβgal at 37° C. All infections occurred in Krebs solution.
Acutely explanted rabbit heart (New Zealand White; 2-3 kg total body weight) were employed for gene transfer tests of this Example 1 and the following Example 2. The rabbits received heparin anticoagulation (1000 units IV) prior to pentobarbital (50 mg/kg IV). […]

## NCCc1c[nH]c2ccc(O)cc12 [serotonin]
Agent perfused to enhance microvascular permeability, versus baseline
  change in percentage of infected myocytes by supplemental agent: significant increase
Pretreatment 500 ml normal Krebs with 10^-5 M agent over 15 minutes, agent also present during Adβgal infection
  percentage of infected myocytes: 77.8±2.3%
